Test results reported in patent US20240408064A1, “RAS INHIBITORS, COMPOSITIONS AND METHODS OF USE THEREOF” (GENETOLEAD INC., priority 2021, published 2024).
Where “and” joins values, the source holds several entries; their conditions need not be identical. Equal values may be shown once.

Experiments:
HRas^G12V [1] = molecular target: T1, HRas^G12V (Homo sapiens (Human), UniProt P01112, G12V); assay: 19F DLB (ligand-observed 19F NMR) score; type: binding; parameters: scale not given here
Procedure: (§1) All NMR experiments were collected using 3 mm NMR tubes on a 600 MHz Bruker Avance III spectrometer equipped with a QCI helium cryoprobe and a SampleJet sample changer. The buffer used for NMR experiments was 25 mM sodium phosphate pH 7.4, 150 mM NaCl, 5 mM MgCl2, 1 mM TCEP-d16, 10% D2O. Data were processed using Bruker TopSpin.
(§2) Since the fragment library was curated using phosphate buffer, 25 mM sodium phosphate pH 7.4, 150 mM NaCl, 5 mM MgCl2, 1 mM TCEP-d16, 10% D2O Fresh TCEP was used for experiments. Screening was performed using ^1H-decoupled 1D ^19F experiment Bruker experiment (zgfhigqn.2) with 64 scans and a relaxation delay of 5 seconds. 50 μM HRas^G12V and 240 μM of each fragment in pools (mixtures) were used.
Hit confirmation was performed using the same ^19F experiment as the screen. Ligand-observed 1D ^1H, protein-observed 1D ^1H, ^1H T2-CPMG as well as Saturation Transfer Difference (STD) experiments were also run on the same samples. Ligand-observed 1D ^1H was run using the standard Bruker sequence with excitation sculpting (zgesgp) with a relaxation delay of 10 seconds and 16 scans per spectrum. Protein-observed 1D ^1H was performed using the same sequence with a relaxation delay of 1 second and 256 scans in order to increase the signal-to-noise of the protein resonances, while keeping the experimental time relatively short. The ^1H T2-CPMG experiment employed a modified version of the Bruker 1D ^1H zgesgp experiment with the addition of a CPMG pulse train after the first 90° excitation pulse. Total duration for each spin echo was fixed at 1 ms (τ=500 μs), while the number of echoes in the pulse train was varied according to the total time (T). The number of scans for each spectrum was 4 and eight delay times were run on each sample, ranging from 1 ms to 800 ms. […]

HRas^G12V [2] = molecular target: T1, HRas^G12V; assay: 19F T2-CPMG NMR score; type: binding
Procedure: as §1, §2
Hit confirmation was performed using the same ^19F experiment as the screen. Ligand-observed 1D ^1H, protein-observed 1D ^1H, ^1H T2-CPMG as well as Saturation Transfer Difference (STD) experiments were also run on the same samples. Ligand-observed 1D ^1H was run using the standard Bruker sequence with excitation sculpting (zgesgp) with a relaxation delay of 10 seconds and 16 scans per spectrum. Protein-observed 1D ^1H was performed using the same sequence with a relaxation delay of 1 second and 256 scans in order to increase the signal-to-noise of the protein resonances, while keeping the experimental time relatively short. The ^1H T2-CPMG experiment employed a modified version of the Bruker 1D ^1H zgesgp experiment with the addition of a CPMG pulse train after the first 90° excitation pulse. Total duration for each spin echo was fixed at 1 ms (τ=500 μs), while the number of echoes in the pulse train was varied according to the total time (T). The number of scans for each spectrum was 4 and eight delay times were run on each sample, ranging from 1 ms to 800 ms.
Because of its power to probe the intrinsically weak interactions (Kd) between targets and low-molecular weight fragments, NMR fragment-based lead discovery (FBLD) is a very useful biophysical method in early stage drug discovery, especially for challenging target proteins; including those with shallow binding pockets. Since FBLD screens are performed using low-molecular weight compounds (fragments) with lower structural complexity, the same chemical space can be covered using a smaller number of drug-like fragments versus use of large libraries of higher-molecular weight lead-like compounds as in high throughput screening (HTS) campaigns. Therefore, FBLD has a much higher hit rate than HTS using only several hundred to several thousand compounds in comparison with approximately 1 million compounds for HTS. Also, the small size of the compounds screened in FBLD means a better chance to fully match the interactions with small or transient pockets within the target protein, where these less tractable pockets cannot be accessed with standard classical HTS methods. […] We expect this methodology to be more advantageous than classical HTS methods for expediting the time from hit to lead (H2L) and allows for rapid access to high quality leads with lower attrition rates in subsequent lead optimization (LO) campaigns toward pre-clinical candidate selection. FBLD screening by NMR involves a “consensus binding” approach where several distinct NMR experiments (DLB, STD, CPMG) are applied along with a free-state aggregation detection method (T2-CPMG) to rank the compounds for their affinity to the receptor (HRAS in this case) whilst simultaneously monitoring the solution behavior and critical quality attributes of each compound. The latter helps to eliminate artifact binders which are highly problematic. We performed a fluorine screen involving 461 compounds that were derived from a highly curated fragment library. Moreover, two-dimensional ^15N HSQC NMR was also used to validate ligand-binding sites on the target protein. […]

T1 sequence (P01112 1-166 G12V): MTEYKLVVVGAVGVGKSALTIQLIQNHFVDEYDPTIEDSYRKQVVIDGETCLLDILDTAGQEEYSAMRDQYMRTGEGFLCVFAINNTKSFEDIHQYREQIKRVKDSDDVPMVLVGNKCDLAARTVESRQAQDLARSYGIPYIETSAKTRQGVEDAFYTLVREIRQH

| 19F DLB Score (HRas^G12V [1]) | 19F T2-CPMG Score (HRas^G12V [2]) | Compound |
| --- | --- | --- |
| 3.59 | 39.34 | O=C1C[C@H](c2c[nH]c3cc(F)ccc23)C(=O)N1 (single isomer, unassigned) [Compound 11039] |
| 3.49 | – | O=C1C[C@@H](c2c[nH]c3cc(F)ccc23)C(=O)N1 (single isomer, unassigned) [Compound 11040] |
| 2.09 | 12.62 | O=C(NCCc1c[nH]c2cc(F)ccc12)[C@H]1CCCO1 [Compound 10013] |
| 4.63 and 2.64 | – | O=C(Cc1c[nH]c2cc(F)ccc12)N1CCOCC1 [Compound 10016] |
| 1.62 | 14.34 | CN1CCN(CCNC(=O)Cc2c[nH]c3cc(F)ccc23)CC1 [Compound 10020] |
| 3.05 | 18.47 | COc1cccc(NC(=O)Cc2c[nH]c3cc(F)ccc23)c1 [Compound 10030] |
| 0.96 | 20.33 | O=C(NCCc1c[nH]c2cc(F)ccc12)c1ccc(F)cc1 [Compound 10039] |
| 2.72 | 37.91 | O=C(Cc1c[nH]c2cc(F)ccc12)Nc1ccc2[nH]ccc2c1 [Compound 10042] |
| 4.75 | 25.51 | Fc1ccc2c(CNc3ccccc3)c[nH]c2c1 [Compound 10052, N-((6-fluoro-1H-indol-3-yl)methyl) aniline] |
| 3.07 | 21.6 | O=C(Cc1c[nH]c2cc(F)ccc12)Nc1cccnc1 [Compound 10058] |
| 3.22 | 18.99 | O=C(Cc1c[nH]c2cc(F)ccc12)Nc1ccc2c(c1)OCO2 [Compound 10059] |
| 2.54 | 21.31 | O=C(Cc1c[nH]c2cc(F)ccc12)N1CC2(COC2)C1 [Compound 10069] |
| 1.77 | 7.09 | COCC1CN(C(=O)Cc2c[nH]c3cc(F)ccc23)C1 [Compound 10075] |
| 2.07 | 11.04 | O=C(Cc1c[nH]c2cc(F)ccc12)Nc1ncccn1 [Compound 10078, 2-(6-fluoro-1H-indol-3-yl)-N-(pyrimidin-2-yl) acetamide] |
| 2.15 | 15.91 | COC1CN(C(=O)Cc2c[nH]c3cc(F)ccc23)C1 [Compound 10081] |
| 2.43 | 21.45 | O=C(CN1CCC1)c1c[nH]c2cc(F)ccc12 [Compound 10085, 2-(azetidin-1-yl)-1-(6-fluoro-1H-indol-3-yl) ethan-1-one] |
| 2.16 | 13.65 | COC(=O)C1CN(C(=O)Cc2c[nH]c3cc(F)ccc23)C1 [Compound 10087, methyl 1-(2-(6-fluoro-1H-indol-3-yl)acetyl) azetidine-3-carboxylate] |
| 2.24 | 11.14 | COC(=O)C1CCN1C(=O)Cc1c[nH]c2cc(F)ccc12 (stereo not shown) [Compound 10088, Methyl 1-(2-(6-fluoro-1H-indol-3-yl)acetyl)azetidine-2-carboxylate] |
| 1.89 | 9.84 | COCC1(O)CN(C(=O)Cc2c[nH]c3cc(F)ccc23)C1 [Compound 10089, 2-(6-fluoro-1H-indol-3-yl)-1-(3-hydroxy-3-(methoxymethyl)azetidin-1-yl)ethan-1-one] |
| 1.93 | 7.83 | CC(=O)N[C@@H]1CCN(C(=O)Cc2c[nH]c3cc(F)ccc23)C1 [Compound 10091] |

| 19F DLB Score (HRas^G12V [1]) | 19F T2-CPMG Score (HRas^G12V [2]) | Compound |
| --- | --- | --- |
| 1.4 | 11.85 | CC1CN(C)CCC1NC(=O)Cc1c[nH]c2cc(F)ccc12 (stereo not shown) [Compound 10099, N-(1,3-dimethylpiperidin-4-yl)-2-(6-fluoro-1H-indol-3-yl)acetamide] |
| 1.73 | 9.66 | CC(c1ccncc1)N(C)C(=O)Cc1c[nH]c2cc(F)ccc12 (stereo not shown) [Compound 10100, 2-(6-fluoro-1H-indol-3-yl)-N-methyl-N-(1-(pyridin-4-yl)ethyl)acetamide] |
| 1.62 | 7.82 | COCCOC1CN(C(=O)Cc2c[nH]c3cc(F)ccc23)C1 [Compound 10103, 2-(6-fluoro-1H-indol-3-yl)-1-(3-(2-methoxyethoxy)azetidin-1-yl) ethan-1-one] |
| 3.45 | 15.4 | O=C1CCCN(C(=O)Cc2c[nH]c3cc(F)ccc23)C1 [Compound 10109] |
| 1.89 | 12.42 | O=C(C1CC1)C1CN(C(=O)Cc2c[nH]c3cc(F)ccc23)C1 [Compound 10115, 1-(3-(cyclopropanecarbonyl)azetidin-1-yl)-2-(6-fluoro-1H-indol-3-yl)ethan-1-one] |
| 1.88 | 13.95 | CC(C)C(=O)C1CN(C(=O)Cc2c[nH]c3cc(F)ccc23)C1 [Compound 10116] |
| 6.06 | – | CC1CN(C(=O)C(C#N)c2c[nH]c3cc(F)ccc23)C1 (stereo not shown) [Compound 11033] |
| 5.34 | – | CC(=O)Nc1cccc(NC(=O)C(C#N)c2c[nH]c3cc(F)ccc23)c1 (stereo not shown) [Compound 11035] |
| 2.37 | – | O=C(C1CCNCC1)N1CCC(c2c[nH]c3cc(F)ccc23)C1 (stereo not shown) [Compound 11038] |
| 3.58 | – | O=C(C1CCNC1)N1CCC(c2c[nH]c3cc(F)ccc23)CC1 (stereo not shown) [Compound 11046] |
| 3.29 | – | O=C(C1CCCNC1)N1CCC(c2c[nH]c3cc(F)ccc23)CC1 (stereo not shown) [Compound 11048] |
| Non conclusive | – | CN(C)Cc1cc2ccc(F)cc2[nH]1 [Compound 11049] |
| Non conclusive | – | O=C(O)CCc1c[nH]c2cc(F)ccc12 [Compound 11050] |
| Non conclusive | – | O=C(O)CC(c1ccc(F)cc1F)c1c[nH]c2cc(F)ccc12 (stereo not shown) [Compound 11056] |
| Non conclusive | – | COc1ccc(C(CC(=O)O)c2c[nH]c3cc(F)ccc23)cc1 (stereo not shown) [Compound 11057] |
| Non conclusive | – | O=C(O)CC(c1cccc(F)c1)c1c[nH]c2cc(F)ccc12 (stereo not shown) [Compound 11059] |
| Non conclusive | – | O=C(O)C(NCc1ccccc1)c1c[nH]c2cc(F)ccc12 (stereo not shown) [Compound 11060] |
| Non conclusive | – | O=C(O)C(NCc1cncc(Br)c1)c1c[nH]c2cc(F)ccc12 (stereo not shown) [Compound 11061] |
| Non conclusive | – | O=C(O)C(c1c[nH]c2cc(F)ccc12)N1CCC(O)CC1 (stereo not shown) [Compound 11062] |
| Non conclusive | – | O=C(O)C(NCc1ccc(O)cc1)c1c[nH]c2cc(F)ccc12 (stereo not shown) [Compound 11063] |

| Compound | 19F DLB Score (HRas^G12V [1]) | 19F T2-CPMG Score (HRas^G12V [2]) |
| --- | --- | --- |
| CN1CCN(C(=O)Cc2c[nH]c3cc(F)ccc23)CC1 [Compound 10065] | 2.88 | 22.6 |
| CC(C)N1CCN(C(=O)Cc2c[nH]c3cc(F)ccc23)CC1 [Compound 10068] | 2.43 | 10.72 |
| CC(C)COC1CCN(C(=O)Cc2c[nH]c3cc(F)ccc23)CC1 [Compound 10111, 2-(6-fluoro-1H-indol-3-yl)-1-(4-isobutoxypiperidin-1-yl) ethan-1-one] | 2.23 | 12.96 |
